Laboratory results reported in patent US10610863B2, “Automatic microfluidic system for antibiotic susceptibility testing and method of operating thereof” (NATIONAL TSING HUA UNIVERSITY, priority 2016, dated 2020).
Converted amounts (≈) assume the structure as drawn.

Tests used:
[1] = system: standard strain Enterococcus 29212 (ATCC); experiment: E-Test MIC, standard strain Enterococcus 29212 (Test 1); format: cell-based, E. faecalis; conditions: incubation time 24 hours
Experimental: In Test 1, a standard strain Enterococcus 29212, which includes E. faecalis and is purchased from American type culture collection (ATCC), is designed as a bacterial suspension to be tested. The standard strain Enterococcus 29212 is susceptible Enterococcus, and a minimum inhibitory concentration of the standard strain Enterococcus 29212 detected by a clinical standard (i.e., E-Test®) is 4 μg/mL. In particular, the antibiotic solution of Test 1 is a vancomycin-containing solution.

E. faecium (vanA) [2] = experiment: E-Test MIC, vancomycin-resistant Enterococcus vanA (Test 2); format: cell-based; conditions: incubation time 24 hours
Experimental: (§1) In Test 2, the antibiotic solution, the dilution mode and the operation of the microfluidic system are the as Test 1. However, a bacterial suspension to be tested of Test 2 is the bacterial suspension containing E. faecium (vancomycin-resistant Enterococcus). In particular, a genotype of the vancomycin-resistant Enterococcus in Test 2 is vanA, and a minimum inhibitory concentration thereof is determined by the conventional method (E-Test®) to be 32 μg/mL.

E. faecium (vanB) [3] = experiment: E-Test MIC, vancomycin-resistant Enterococcus vanB (Test 3); format: cell-based; conditions: incubation time 24 hours
Experimental: as §1, with “3,” for “2,”, “3” for “2”, “vanB,” for “vanA,”, “8” for “32”

E. gallinarum (vanC1) [4] = experiment: E-Test MIC, vancomycin-resistant Enterococcus vanC1 (Test 4); format: cell-based; conditions: incubation time 24 hours
Experimental: as §1, with “4,” for “2,”, “4” for “2”, “gallinarum” for “faecium”, “vanC1,” for “vanA,”, “3” for “32”, “μg/mL. The incubation time and the determined minimum inhibitory concentration of E. gallinarum (vanC1) in Test 4 are listed in Table 1.” for “μg/mL.”

E. casseliflavus (vanC2) [5] = experiment: E-Test MIC, vancomycin-resistant Enterococcus vanC2 (Test 5); format: cell-based; conditions: 24 h, read-out: MIC (E-test)
Experimental: (§2) In Test 5, the antibiotic solution, the dilution mode and the operation of the microfluidic system are the as Test 1. However, a bacterial suspension to be tested of Test 5 is the bacterial suspension containing E. casseliflavus (vancomycin-resistant Enterococcus). In particular, a genotype of the vancomycin-resistant Enterococcus in Test 4 is vanC2, and a minimum inhibitory concentration thereof is determined by the conventional method (E-Test®) to be 4 μg/mL. The incubation time and the determined minimum inhibitory concentration of E. casseliflavus (vanC2) in Test 5 are listed in Table 1.

[6] = system: standard strain Enterococcus 29212 (ATCC); experiment: Microfluidic system of Embodiment 1 antibiotic susceptibility testing (Test 1); format: cell-based, E. faecalis; conditions: for MIC: Enterococcus
From the text: In Test 1, a standard strain Enterococcus 29212, which includes E. faecalis and is purchased from American type culture collection (ATCC), is designed as a bacterial suspension to be tested. […] In particular, the antibiotic solution of Test 1 is a vancomycin-containing solution.
As to the determination of the minimum inhibitory concentration, a quantitative dye can be added into each of the first reaction chamber 122, the second reaction chamber 124a, the second reaction chamber 124b, the second reaction chamber 124c, and the second reaction chamber 124d as mentioned above. After few minutes, an upright fluorescent microscope is applied for determining fluorescent staining results as shown in FIG. 8. In details, the fluorescent staining results of the first mixing solution and each of the second mixing solutions (that is, the concentration of the antibiotic solution is 0 μg/mL, 2 μg/mL, 4 μg/mL, 6 μg/mL and 8 μg/mL, respectively) are shown, separately, from FIG. 8 (a) to FIG. 8 (e).
Alternatively, a proper pH indicator, such as phenol red, also can be added to the broth as a determination method. In details, a pH-dependent colorimetric broth, which includes brain heart infusion (BHI) media supplemented with 1% glucose and 0.05% phenol red, and antibiotics, are loaded. Then, the standard strain Enterococcus 29212 is loaded as the bacteria suspension to be tested herein for the antibiotic susceptibility testing. […] In particular, incubation times from FIG. 9(a) to FIG. 9(f) are 0 hour, 4 hours, 10 hours, 20 hours, 23 hours, and 24 hours.
The pH-dependent colorimetric broth will be transformed into an acidic pH due to bacterial growth, and the phenol red can be visually observed through color change from red to yellow.

E. faecium (vanA) [7] = experiment: Microfluidic system of Embodiment 1 antibiotic susceptibility testing (Test 2); format: cell-based; conditions: Enterococcus faecium, incubation time 24 hours
Experimental: (§3) Briefly, five different concentrations of antibiotic solutions (0 μg/mL, 2 μg/mL, 4 μg/mL, 6 μg/mL, and 8 μg/mL) are prepared, separately, by the microfluidic system of Embodiment 1 of the present disclosure with the proportional dilution mode. Then, the antibiotic solutions are mixed with the bacteria suspensions at a final concentration of 5×10^5 CFU/mL. The determination of the minimum inhibitory concentration is read after incubation at 37° C. for 24 hours.
(§4) Alternatively, a proper pH indicator, such as phenol red, also can be added to the broth as a determination method. In details, a pH-dependent colorimetric broth, which includes brain heart infusion (BHI) media supplemented with 1% glucose and 0.05% phenol red, and antibiotics, are loaded. Then, the standard strain Enterococcus 29212 is loaded as the bacteria suspension to be tested herein for the antibiotic susceptibility testing. Please refer to FIG. 9, which is colorimetric results of the antibiotic susceptibility testing of the standard strain Enterococcus 29212 diluted by the microfluidic chip of FIG. 1. […]
as §1, with “However, a bacterial suspension to be tested of Test 2 is the bacterial suspension containing E. faecium (vancomycin-resistant Enterococcus).” left out

E. faecium (vanB) [8] = experiment: Microfluidic system of Embodiment 1 antibiotic susceptibility testing (Test 3); format: cell-based; conditions: Enterococcus faecium, incubation time 19 hours
Experimental: as §3, §4
(§5) In Test 3, the antibiotic solution, the dilution mode and the operation of the microfluidic system are the as Test 1. […] In particular, a genotype of the vancomycin-resistant Enterococcus in Test 3 is vanB, and a minimum inhibitory concentration thereof is determined by the conventional method (E-Test®) to be 8 μg/mL.

E. gallinarum (vanC1) [9] = experiment: Microfluidic system of Embodiment 1 antibiotic susceptibility testing (Test 4); format: cell-based; conditions: Enterococcus gallinarum, incubation time 16 hours
Experimental: as §3
as §4, with “testing.” for “testing. Please refer to FIG. 9, which is colorimetric results of the antibiotic susceptibility testing of the standard strain Enterococcus 29212 diluted by the microfluidic chip of FIG. 1.”
as §5, with “4,” for “3,”, “4” for “3”, “vanC1,” for “vanB,”, “3” for “8”, “μg/mL. The incubation time and the determined minimum inhibitory concentration of E. gallinarum (vanC1) in Test 4 are listed in Table 1.” for “μg/mL.”

E. casseliflavus (vanC2) [10] = experiment: Microfluidic system of Embodiment 1 antibiotic susceptibility testing (Test 5); format: cell-based; conditions: Enterococcus casseliflavus, incubation time 17 hours
Experimental: as §3
as §4, with “testing.” for “testing. Please refer to FIG. 9, which is colorimetric results of the antibiotic susceptibility testing of the standard strain Enterococcus 29212 diluted by the microfluidic chip of FIG. 1.”
as §2, with “However, a bacterial suspension to be tested of Test 5 is the bacterial suspension containing E. casseliflavus (vancomycin-resistant Enterococcus).” left out

[11] = system: vancomycin-intermediate Staphylococcus aureus (VISA); experiment: Microfluidic system of Embodiment 2 combination susceptibility testing (Test 6); format: cell-based; conditions: for minimum inhibitory concentration alone (denominator of the FIC equation): antibiotic alone; for minimum inhibitory concentration in combination (vancomycin + ceftazidime): colorimetric, 24 hours of incubation at 37° C.
Experimental: In Test 6, vancomycin-intermediate Staphylococcus aureus (VISA) is designed as a bacterial suspension to be tested, and two antibiotic solutions, that is, vancomycin and ceftazidime, with different concentrations are prepared. In details, the two antibiotic solutions are transported, separately, to each of the second reaction chambers 124a′, 124b′, 124c′, 124d′, 124e′, 124f′, 124g′, 124h′, 124i′, 124j′, 124k′ to mix with the broth and the bacterial suspension to be tested. Then, concentrations of vancomycin of the second reaction chambers 124a′, 124b′, 124c′, 124d′, 124e′, 124f′, 124g′, 124h′, 124i′, 124j′, 124k′ are 4 μg/mL, 6 μg/mL, 4 μg/mL, 4 μg/mL, 4 μg/mL, 0 μg/mL, 6 μg/mL, 6 μg/mL, 2 μg/mL, 2 μg/mL and 2 μg/mL, respectively. Furthermore, concentrations of ceftazidime of the second reaction chambers 124a′, 124b′, 124c′, 124d′, 124e′, 124f′, 124g′, 124h′, 124i′, 124j′, 124k′ are 2 μg/mL, 2 μg/mL, 4 μg/mL, 6 μg/mL, 0 μg/mL, 4 μg/mL, 6 μg/mL, 4 μg/mL, 6 μg/mL, 4 μg/mL and 2 μg/mL, respectively. In addition, a proper pH indicator, such as phenol red, is added to the broth in Test 6. After incubation at 37° C. for 24 hours, results can be visually observed.
In particular, incubation times from FIG. 10(a) to FIG. 10(d) are 0 hour, 10 hours, 17 hours and 24 hours.
Then, a fractional inhibitory concentration index of the two antibiotic solutions for the vancomycin-intermediate Staphylococcus aureus can be derived from the following equation: FICindex=FICA+FICB. FICA is calculated as a quotient between the minimum inhibitory concentration of vancomycin in combination and the minimum inhibitory concentration of vancomycin alone, and FICB is calculated as a quotient between the minimum inhibitory concentration of ceftazidime in combination and the minimum inhibitory concentration of ceftazidime alone. In particular, the combination can be determined as synergic when the fractional inhibitory concentration index is ≤0.5, as antagonistic when the fractional inhibitory concentration index is >4. The results between synergy and antagonistic tendency are defined as additive or indifferent.

SMILES | MIC [1] | MIC (E. faecium (vanA) [2]) | MIC (E. faecium (vanB) [3]) | MIC (E. gallinarum (vanC1) [4]) | MIC (E. casseliflavus (vanC2) [5]) | susceptibility of the strain according to the CLSI guidelines [6] | MIC ([6]; 37° C. for 24 hours, live bacteria green fluorescence, read-out: minimum inhibitory concentration by fluorescent staining) | MIC ([6]; colorimetric (phenol red), incubation time 20 hours, read-out: MIC (Microfluidic system of Embodiment 1)) | MIC (Microfluidic system of Embodiment 1) ([6]; colorimetric (phenol red), incubation time 20 hours) | MIC (E. faecium (vanA) [7]) | MIC (E. faecium (vanB) [8]) | MIC (E. gallinarum (vanC1) [9]) | MIC (E. casseliflavus (vanC2) [10]) | minimum inhibitory concentration alone (denominator of the FIC equation) [11] | minimum inhibitory concentration in combination (vancomycin + ceftazidime) [11]
CN[C@H](CC(C)C)C(=O)N[C@H]1C(=O)N[C@@H](CC(N)=O)C(=O)N[C@H]2C(=O)N[C@H]3C(=O)N[C@H](C(=O)N[C@H](C(=O)O)c4cc(O)cc(O)c4-c4cc3ccc4O)[C@H](O)c3ccc(c(Cl)c3)Oc3cc2cc(c3O[C@@H]2O[C@H](CO)[C@@H](O)[C@H](O)[C@H]2O[C@H]2C[C@](C)(N)[C@H](O)[C@H](C)O2)Oc2ccc(cc2Cl)[C@H]1O [vancomycin] | 4 µg/mL (≈ 2.76 µM) | 32 µg/mL (≈ 22.1 µM) | 8 µg/mL (≈ 5.52 µM) | 3 µg/mL (≈ 2.07 µM) | 4 µg/mL (≈ 2.76 µM) | susceptible | 4 µg/mL (≈ 2.76 µM) | 4 µg/mL (≈ 2.76 µM) | 4 ± 0 µg/mL | > 16 µg/mL | 4 µg/mL (≈ 2.76 µM) | 4 µg/mL (≈ 2.76 µM) | 6 µg/mL (≈ 4.14 µM) | 3 | 4 µg/mL
CC(C)(O/N=C(\C(=O)N[C@@H]1C(=O)N2C(C(=O)[O-])=C(C[n+]3ccccc3)CS[C@H]12)c1csc(N)n1)C(=O)O [ceftazidime] | – | – | – | – | – | – | – | – | – | – | – | – | – | > 256 | 2 µg/mL
